Experimental data reported in patent US7566722B2, “Triazolopyrimidine derivatives as ADP P2Y12 receptor antagonists” (Janssen Pharmaceutica, N.V., priority 2006, dated 2009).

What was measured:
P2Y12 receptor = molecular target: T1, P2Y12 receptor (Homo sapiens, UniProt Q9H244); test: Whole cell receptor binding assay, 2-MeS[3H]-ADP; details: HEK 293 cells stably transfected with P2Y12; 2-MeS[3H]-ADP 3 nM; 30 min at 37° C.; read-out: Inhibition of Receptor Binding (IC50 μM)
T1 construct: expressed in transfected cells
Protocol: A whole cell-binding assay for 2-MeS [^3H]-ADP (Custom synthesized by Amersham BioScience, Piscataway, N.J.) to the P2Y12 receptor was performed.
A P2Y12 cDNA containing hygromycin resistant gene was transfected in HEK 293 cells. A stable cell line was obtained by a cloning selection method. The cells were cultured in DMEM supplemented with 10% FBS and 1× of p/s.
On the day of the assay, the cells were harvested and resuspended in 0.25% BSA-DMEM and adjusted to a cell concentration of 1.6×10^6/ml. 15 μl of each compound was mixed with 120 μl of cell suspension in 96 well assay plates and incubated for 5 min prior to the addition of the radio-labeled ligand 2-MeS[^3H]-ADP (3 nM final in 0.25% BSA-DMEM) or unlabeled […] (for non-specific binding). The reaction was then incubated for 30 min at 37° C. and stopped by adding cold DMEM. The labeled and unlabeled cells were separated by a filtration method using a Packard Filtermate 196 on to the unfilter-96 GF/B plate. The plates were dyed in a 37° C. oven for 1-2 hours and 50 μl of MicroScint-20 (PerkinElmer) was added to each well. The radioactivity was measured using a TOPCOUNT beta counter (Packard). The percent inhibition for each compound was calculated by the change in radioactivity as a % inhibition of the control to obtain an IC50, as shown in Table 2.

platelets = test: In vitro platelet aggregation (ADP-induced, washed platelets); format: cell-based; details: Homo sapiens, washed platelets from healthy volunteers, agonist giving 60-70% aggregation, % inhibition of control ADP response
Protocol: Platelet aggregation studies were performed according to a published method (Bednar, B., Condra, C., Gould, R. J., and Connolly, T. M., Throm. Res., 77:453-463 (1995). Platelet-rich plasma (PRP) concentrates prepared from healthy volunteers who were aspirin free for at least 7 days by venipuncture using ACD-A as anticoagulant was purchased from Biological Specialties, Inc. (Colmar, Pa.). PRP was centrifuged at 730 g for 15 min. The platelet pellet was washed twice in CGS buffer (13 mM sodium citrate, 30 mM glucose, 120 mM NaCl, pH 6.5) containing 1 μ/ml apyrase (grade V, Sigma-Aldrich, St. Louis, Mo.), 1 mM EGTA, and resuspended in Tyrode's buffer (140 mM NaCl, 2.7 mM KCl, 12 mM NaHCO3, 0.76 mM Na2HPO4, 5.5 mM dextrose, 5.0 mM Hepes, 0.2% BSA, pH 7.4). The platelets were diluted to 3×10^8 platelets/ml and kept >45 min at 37° C. before use. 105 μl of washed platelets, 2 mM CaCl2 and […] of fibrinogen were added to a 96-well microliter plate.
Platelet aggregation was initiated by the addition of serial concentrations of ADP (BioData Corp. Horsham, Pa.). Buffer was added to one set of control wells. The assay plate was stirred constantly and intermittently placed in a microplate reader (Softmax, Molecular Devices, Menlo Park, Calif.) to read optical density (650 nm) at 0 and 5 minutes after the addition of the compound solutions. Aggregation was calculated as the decrease in optical density between the time 0- and 5-min measurements and expressed as % of aggregation. For the inhibition assay, platelet aggregation was conducted as described above except for compound additions. Test compounds were prepared in 100% DMSO and stored.
On the day of the assay, test compounds were diluted in the buffer containing 3% of DMSO as a 10× working solution. 15 μl of compound solutions were added to 105 μl of platelets 5 min prior to the addition of CaCl2 and fibrinogen.

ADP P2Y12 receptor = molecular target: T2, ADP P2Y12 receptor (Homo sapiens, UniProt Q9H244); test: FLIPR calcium assay transducing Gi-coupled signaling to the Gq pathway (inhibition of ADP-induced calcium mobilization); format: cell-based; details: HEK 293 cells co-transfected with P2Y12 and Gqi5, ADP at EC60-70 dose
T2 construct: expressed in transfected cells
Description: A FLIPR Calcium Assay Transducing Gi-Coupled Signaling to the Gq Pathway
The ADP P2Y12 subtype is a Gi coupled GPCR, which mediates inhibition of adenylate cyclase leading to decreased cAMP while Gq proteins primarily activate phospholipase C, which stimulates inositol-1,4,5-triphosphate (IP3) formation and a subsequent increase in intracellular Ca^2+ concentration, which can be easily measured by FLIPR. Prior to the development of a method to convert a Gi coupled GPCR signaling to a Gq coupled GPCR signaling, a significant barrier existed for the functional testing and screening of Gi coupled GPCRs. One popular method, GTPγS migration, is slow, produces a small signal and generates radioactive waste. The discovery that a small switch in the amino acid sequence in the Gi protein could convert it to a protein mediating a Gq coupled response has led to the development of robust, high throughput assays for this valuable receptor subtype.
The FLIPR-based HTS assay transducing the Gi signaling to the Gq pathway is described below.
pcDNA3hygroP2Y12 containing a hygromycin resistance gene and pLEC1-Gqi5-HA containing a neomycin resistance gene (licensed from Molecular Devices, Sunnyvale, Calif.) were co-transfected into Human embryonic kidney (HEK) 293 cells with SuperFect (Qiagen, Valencia, Calif.). Cell clones were selected in the presence of 600 μg/ml hygromycin B (Life Technologies, Carlsbad, Calif.) and 1 mg/ml of G418 (Mediatech, Herndon, Va.). Drug resistant colonies were picked and screened by FLIPR and the gene expression was further confirmed by RT-PCR. Positive clones were maintained in growth medium (DMEM supplemented with 10% FBS, 1× p/s) containing 400 μg/ml of G418 and 200 μg/ml of hygromycin.
The day before the assay, cells are seeded in clear, flat-bottom black-wall, tissue culture treated polystyrene 96- or 384-well plates and incubated at 37° C., 5% CO2. 50 μl of complete dye loading solution (FLIPR Calcium Assay Kit, Molecular Devices) was added to each well containing 100 μl of culture media. The cells were incubated for at least 30 min at 37° C., in 5% CO2 before initiating the assay on the FLIPR. The agonist effect of ADP was tested and EC50 was determined prior to compound testing. The EC60-70 dose was used.
The antagonist compounds were prepared at 4× and the agonists were diluted at 5× the concentration desired in the test wells, and then aliquoted into the sample plates. The sample plates and the cell plate were placed in the FLIPR assay chamber. A first addition (50 μl) was made at the start of reading and a second addition (50 μl) was made after 5 min of reading. Raw fluorescence data was exported for each well and tabulated versus time within an ASCII file. Data was then imported into Excel and the peak response over the basal level was determined. The percent inhibition for each compound was calculated by the change in fluorescent density as a % inhibition of the control ADP response to obtain an IC50, as shown in Table 1 (wherein N/A means Not Applicable).

T2 sequence (Q9H244 whole entry): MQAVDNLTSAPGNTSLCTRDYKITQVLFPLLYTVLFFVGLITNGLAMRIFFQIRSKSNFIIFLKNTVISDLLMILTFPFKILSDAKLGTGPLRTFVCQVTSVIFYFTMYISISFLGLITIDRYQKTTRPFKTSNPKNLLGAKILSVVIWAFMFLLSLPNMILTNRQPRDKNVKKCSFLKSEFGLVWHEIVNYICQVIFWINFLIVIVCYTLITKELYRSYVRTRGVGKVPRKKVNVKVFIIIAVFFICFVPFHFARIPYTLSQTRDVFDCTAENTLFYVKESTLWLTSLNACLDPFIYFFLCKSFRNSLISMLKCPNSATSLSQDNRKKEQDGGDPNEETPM
T1 sequence (Q9H244 whole entry): as above

| Compound | IC50 (P2Y12 receptor) [µM] | IC50 (platelets) [µM] | IC50 (ADP P2Y12 receptor) [µM] |
| --- | --- | --- | --- |
| CCCCNc1nc(SCCC)nc2c1nnn2[C@@H]1C[C@H](C2=NCCN2)[C@@H](O)[C@H]1O [Cpd 11, (1R,2S,3R,5R)-3-(7-butylamino-5-propylsulfanyl-[1,2,3]triazolo[4,5-d]pyrimidin-3-yl)-5-(4,5-dihydro-1H-imidazol-2-yl)-cyclopentane-1,2-diol] | 4.61 | > 30 | > 30 |
| CCCSc1nc(NCCc2ccccc2)c2nnn([C@@H]3C[C@H](c4nnn[nH]4)[C@@H](O)[C@H]3O)c2n1 [Cpd 12, (1R,2S,3R,5R)-3-(7-phenethylamino-5-propylsulfanyl-[1,2,3]triazolo[4,5-d]pyrimidin-3-yl)-5-(1H-tetrazol-5-yl)-cyclopentane-1,2-diol] | 0.73 | 0.292 | 0.416 |
| CCCCNc1nc(SCCC)nc2c1nnn2[C@@H]1C[C@H](c2nnc(C)[nH]2)[C@@H](O)[C@H]1O [Cpd 13, (1R,2S,3R,5R)-3-(7-butylamino-5-propylsulfanyl-[1,2,3]triazolo[4,5-d]pyrimidin-3-yl)-5-(5-methyl-4H-[1,2,4]triazol-3-yl)-cyclopentane-1,2-diol] | 2.16 | 1.39 | 2.17 |
| CCCSc1nc(NCCc2cccs2)c2nnn([C@@H]3C[C@H](c4nnc(C)[nH]4)[C@@H](O)[C@H]3O)c2n1 [Cpd 15, (1S,2R,3R,5R)-3-(5-methyl-4H-[1,2,4]triazol-3-yl)-5-[5-propylsulfanyl-7-(2-thiophen-2-yl-ethylamino)-[1,2,3]triazolo[4,5-d]pyrimidin-3-yl]-cyclopentane-1,2-diol] | 3.74 | 6.47 | 10.4 |
| CCCSc1nc(NC[C@@H](C)c2ccccc2)c2nnn([C@@H]3C[C@H](c4nnc(C)[nH]4)[C@@H](O)[C@H]3O)c2n1 [Cpd 16, (1S,2R,3R,5R)-3-(5-methyl-4H-[1,2,4]triazol-3-yl)-5-{7-[(2S)-2-phenylpropylamino]-5-propylsulfanyl-[1,2,3]triazolo[4,5-d]pyrimidin-3-yl}-cyclopentane-1,2-diol] | 3.88 | > 30 | > 30 |
| CCCSc1nc(NC[C@H](C)c2ccccc2)c2nnn([C@@H]3C[C@H](c4nnc(C)[nH]4)[C@@H](O)[C@H]3O)c2n1 [Cpd 17, (1S,2R,3R,5R)-3-(5-methyl-4H-[1,2,4]triazol-3-yl)-5-{7-[(2R)-2-phenylpropylamino]-5-propylsulfanyl-[1,2,3]triazolo[4,5-d]pyrimidin-3-yl}-cyclopentane-1,2-diol] | 9.59 | > 30 | > 30 |
| CCCSc1nc(NCC(F)(F)F)c2nnn([C@@H]3C[C@H](c4nnc(C)[nH]4)[C@@H](O)[C@H]3O)c2n1 [Cpd 18, (1S,2R,3R,5R)-3-(5-methyl-4H-[1,2,4]triazol-3-yl)-5-[5-propylsulfanyl-7-(2,2,2-trifluoro-ethylamino)-[1,2,3]triazolo[4,5-d]pyrimidin-3-yl]-cyclopentane-1,2-diol] | 6.2 | > 30 | > 30 |
| CCCSc1nc(NCCSC)c2nnn([C@@H]3C[C@H](c4nnc(C)[nH]4)[C@@H](O)[C@H]3O)c2n1 [Cpd 19, (1R,2S,3R,5R)-3-[7-(2-methylsulfanyl-ethylamino)-5-propylsulfanyl-[1,2,3]triazolo[4,5-d]pyrimidin-3-yl]-5-(5-methyl-4H-[1,2,4]triazol-3-yl)-cyclopentane-1,2-diol] | 5.09 | > 30 | > 30 |
| CCCCNc1nc(SCCC)nc2c1nnn2[C@@H]1C[C@H](c2nnc[nH]2)[C@@H](O)[C@H]1O [Cpd 20, (1R,2S,3R,5R)-3-(7-butylamino-5-propylsulfanyl-[1,2,3]triazolo[4,5-d]pyrimidin-3-yl)-5-(4H-[1,2,4]triazol-3-yl)-cyclopentane-1,2-diol] | 0.422 | 0.198 | 0.765 |
| CCCSc1nc(N[C@@H]2C[C@H]2c2ccccc2)c2nnn([C@@H]3C[C@H](c4nnn[nH]4)[C@@H](O)[C@H]3O)c2n1 [Cpd 22, (1R,2S,3R,5R)-3-{7-[(1R,2S)-2-phenyl-cyclopropylamino]-5-propylsulfanyl-[1,2,3]triazolo[4,5-d]pyrimidin-3-yl}-5-(1H-tetrazol-5-yl)-cyclopentane-1,2-diol] | 0.002 | 0.002 | 0.024 |
| CCCSc1nc(N[C@H]2C[C@@H]2c2ccccc2)c2nnn([C@@H]3C[C@H](c4nnn[nH]4)[C@@H](O)[C@H]3O)c2n1 [Cpd 23, (1R,2S,3R,5R)-3-{7-[(1S,2R)-2-phenyl-cyclopropylamino]-5-propylsulfanyl-[1,2,3]triazolo[4,5-d]pyrimidin-3-yl}-5-(1H-tetrazol-5-yl)-cyclopentane-1,2-diol] | 0.061 | 0.04 | 0.264 |
